Test results from PMC12610721, “The Action of Cannabidiol on Doxycycline Cytotoxicity in Human Cells—In Vitro Study” (Molecules, 2025).

Legend:
HepG2 cells [1] = assay: cell membrane integrity (LDH leakage assay)
Experimental: (§1) This innovative study evaluated the effects of cannabidiol (Cannabis sativa L.) on doxycycline-induced toxicity using three cell cultures: neural—SH-SY5Y, liver—HepG2, and kidney—HEK-293. […] A series of cytotoxicity assays included assessments of mitochondrial activity, lysosomal activity, cell membrane integrity, DNA synthesis, and cell proliferation. Based on the obtained results, IC50 values for doxycycline, both in monotherapy and in combination with CBD, were calculated, along with evaluations of ROS, death of cells, and morphology. The interaction between the drug and CBD was further analyzed by the combination index (CI).
(§2) Cell membrane integrity was assessed by measuring lactate dehydrogenase (LDH) release, using a commercially available Cytotoxicity Detection Kit (LDH) (Roche Diagnostics, Warsaw, Poland). After incubation, 100 µL of culture medium (cell-free) from each well was transferred to the corresponding wells of an optically clear 96-well flat-bottom microplate, and 100 µL of reaction mixture was added to each well. The plate was then incubated for 30 min at room temperature in the dark. To stop the reaction, 50 µL of 1 M HCl was added to each well. Absorbance was measured at 492 nm using the Synergy 2 Multi-Mode Microplate Reader (BioTek® Instruments Inc., Winooski, VT, USA), with a blank as reference.
(§3) To determine the types of interaction that occur when cells are exposed to combinations of DOX and CBD, the method established by Chou and Talalay was used in this study. The dose–effect relationships of the individual and combined test compounds were modeled biometrically using the Median-Effect Equation based on the Mass Action Law.fa/fu = (D/Dm)^m
(§4) In this isobolographic analysis, the combination index (CI) is a quantitative parameter used to evaluate the type and strength of interactions between multiple compounds. For all combinations, CI values were calculated across a range of affected fractions (Fa) from 0.05 to 0.95 (corresponding to 5–95% toxicity). CI values of 0.9–1.1, <0.9, and >1.1 indicate additive, synergistic, and antagonistic effects, respectively.
(§5) The study was conducted in three independent experiments (n = 3). […] Cytotoxicity data were analyzed using one-way analysis of variance (ANOVA), followed by Dunnett’s post hoc test to assess significance relative to the negative control. The half-maximal inhibitory concentration (IC50), representing the drug or drug–CBD mixture concentration required to inhibit cell viability by 50%, was calculated using GraphPad Prism 5.0. Statistical comparisons between IC50 values were performed using ANOVA followed by Tukey’s post hoc test. Differences were considered statistically significant at p ≤ 0.05.

HEK-293 cells [2] = assay: cell membrane integrity (LDH leakage assay)
Experimental: as §1, §2, §3, §4, §5

SH-SY5Y cells [3] = assay: cell membrane integrity (LDH leakage assay); conditions: 72 h
Experimental: as §1, §2, §3, §4, §5

HepG2 cells [4] = assay: oxidative stress, ROS production (DCFH assay); type: cell-based, human; conditions: HepG2, DCFH-DA, 72 h
Experimental: (§6) Intracellular ROS levels were evaluated using the redox-sensitive fluorescent dye DCFH-DA [87]. Briefly, the cells were incubated with 5 μM DCFH-DA for 1 h at 37 °C in the dark. Thereafter, the tested compounds were added at the concentrations used in the study. Cells treated with 500 μM hydrogen peroxide (H2O2) served as a positive control. After 72 h of incubation, the fluorescence of 2′,7′-dichlorofluorescein (DCF) was measured. Fluorescence was recorded at 485/530 nm using a fluorescence microplate reader (BioTek® Instruments Inc., Winooski, VT, USA).

HEK-293 cells [5] = assay: oxidative stress, ROS production (DCFH assay); type: cell-based, human
Experimental: as §6

SH-SY5Y cells [6] = assay: oxidative stress, ROS production (DCFH assay); type: cell-based, human; conditions: DCFH-DA, 72 h
Experimental: as §6

**Q.** With `C[C@H]1c2cccc(O)c2C(=O)C2=C(O)[C@]3(O)C(=O)C(C(N)=O)=C(O)[C@@H](N(C)C)[C@@H]3[C@@H](O)[C@@H]21` [DOX, doxycycline hyclate] as the molecule, how does the “doxycycline concentration that disrupted membrane integrity” value (HepG2 cells [1]; HepG2, LDH, 72 h) read?
**A.** 50 µg/mL

**Q.** And the IC50 (HepG2 cells [1]; Homo sapiens, HepG2, 72 h)?
**A.** > 200 µg/mL

**Q.** What about the “doxycycline concentration that caused degradation of the cell membrane” value (HEK-293 cells [2]; HEK-293, LDH, 72 h) of the same molecule?
**A.** 6.25 µg/mL

**Q.** What about the IC50 (HEK-293 cells [2]; Homo sapiens, HEK293, 72 h) of the same molecule?
**A.** 30.4 ± 2.7 µg/mL

**Q.** What about the IC50 (SH-SY5Y cells [3]; Homo sapiens) of the same molecule?
**A.** 149 ± 6.5 µg/mL

**Q.** And the “doxycycline concentration that induced cell membrane breakdown” value (SH-SY5Y cells [3]; LDH)?
**A.** 12.5 µg/mL

**Q.** And the “doxycycline concentration at which free radical (ROS) production increased significantly” value (HepG2 cells [4])?
**A.** 12.5 µg/mL

**Q.** What about the “doxycycline concentration from which free radical (ROS) production increased” value (HEK-293 cells [5]) of the same molecule?
**A.** lowest tested concentration

**Q.** And the “doxycycline concentration from which free radical (ROS) production increased” value (SH-SY5Y cells [6])?
**A.** 1.56 µg/mL
